{"source": "patent US5006512A", "about": "“Therapeutic usages of inhibitors for a potassium efflux channel” (priority 1988, dated 1991)", "key": {"mice": {"tested_on": "mice", "assay": "Acute toxicity (LD50) in mice, i.p.", "type": "in vivo"}, "brain ischemia": {"tested_on": "brain ischemia", "assay": "Brain focal ischemia, water content of hemisphere (brain edema)", "type": "in vivo, rat", "settings": "0.14 mg/kg i.v. thirty minutes prior to ischemic insult; 1 hour focal ischemia", "procedure": "(§1) (a) Surgical procedures: Adults male Sprague-Dwaley rats weighing 250-300 g were used in these studies. Anesthesia was induced and maintained with halothane (1.0-2.5%) via closely fitted facial mask. Bilateral common carotid arteries (CCA) were exposed gently and the right CCA was ligated in two places by 4-0 silk suture. To expose the right middle cerebral artery (MCA), the temporal muscles were cut and retracted, then, a small temporal craniotomy (2=2 mm) was performed with a microdrill. Under a microscope, the dura matter was opened with a 26 guage needle, and the MCA was ligated by 10-0 suture with a square knot. Immediately, the left CCA was occluded by a microaneurysmal clip. After the operation, the animal was returned to the cage. One hour later, the left CCA clip was released under awake condition. The sham-operated control was produced in a similar procedure, except for the ligation and clipping of vessels. The operation was usually finished within 30 min.\n(b) Water content and ionic analysis: After fixed time interval (1, 3, and 7 days), the animal was sacrificed and the excised cerebral hemispheres were placed in preweighed crucible and measured an wet weight (W.W) with a chemical balance (Mettler, AE 100). […] The water content (% wet weight) was calculated by (W.W -D.W)/W.W. […]"}, "brain focal ischemia": {"tested_on": "brain focal ischemia", "assay": "Brain focal ischemia, motor performance test", "type": "in vivo, rat", "settings": "0.14 mg/kg", "procedure": "as §1, with “The sham-operated control was produced in a similar procedure, except for the ligation and clipping of vessels. The operation was usually finished within 30 min.” left out\n(c) Motor performance test: The disturbance of motor function was evaluated by the total score obtained from inclined plate test, balance beam test and prehensile test. These motor performance tests were dsesigned to quantify the motor weakness in the global ischemia rats. […] The animal was placed at the highest position of the plate and the time which it could stay on the plate was measured untill 30 sec. […] The time spent on the rod was recorded untill 30 sec. […] The time spent in hanging on the rope was measured untill 30 sec. […]"}, "sickle red blood cells": {"tested_on": "sickle red blood cells", "assay": "Formation of irreversibly sickled cells by sickling-unsickling cycling in vitro", "type": "cell-based", "description": "The inventor previously developed a method to produce irreversibly sickled cells (ISC, which have irreversibly denatured membranes) by exposing sickle red blood cells to a repeated sickling-unsickling cycling in vitro. He used this system to determine the efficacy of a drug in protecting cell membranes (Ohnishi, Br. J. Haematol. 55:665-671, 1983). […] These heavy cells were collected, the amount measured, and the percentage of production calculated (Table 3). As shown in the Table, MR-103 inhibited the formation of irreversibly denatured cells at an extremely low concentration. Even at 20 nM, it inhibited the production of denatured cell almost 50%. […] The subfragment comound MR-117 was also found to have a remarkable effect (Table 4). At a concentration of 60 nM, it inhibited the formation of denatured cells by more than 50%."}}, "note": "“Also recorded” adds a separate entry of the source.", "data": [{"smiles": "CSCC[C@@H]1NC(=O)[C@H](CS)NC(=O)[C@H](CCCCN)NC(=O)CNC(=O)[C@H](CCCNC(=N)N)NC(=O)[C@H](CO)NC(=O)[C@H]([C@@H](C)O)NC(=O)[C@H](CC(N)=O)NC(=O)[C@H](Cc2c[nH]cn2)NC(=O)[C@H](CC(C)C)NC(=O)[C@H](CCCNC(=N)N)NC(=O)[C@H](CCC(N)=O)NC(=O)[C@@H]2CSSC[C@@H](C(=O)N[C@@H](Cc3ccc(O)cc3)C(=O)N[C@@H](CO)C(=O)O)NC(=O)[C@H](CCCNC(=N)N)NC(=O)[C@H](CSSC[C@H](N)C(=O)N[C@@H](Cc3c[nH]c4ccccc34)C(=O)N[C@@H](CO)C(=O)N[C@@H](C(C)C)C(=O)N2)NC(=O)[C@H](CCCCN)NC(=O)[C@H](CCCCN)NC(=O)[C@H](CC(N)=O)NC1=O", "note": "[MR-117]", "values": [{"measurement": "Acute toxicity (LD50)", "setting": "mice", "value": 0.92, "unit": "mg/kg"}, {"measurement": "increase of water content of ischemia-exposed hemisphere", "setting": "brain ischemia", "value": "inhibited the increase of water content; also recorded: much reduced"}, {"measurement": "effect on motor performance after brain focal ischemia (in words)", "setting": "brain focal ischemia; 1 hour focal ischemia, 3 and 7 days", "value": "remarkable recovery effect"}, {"measurement": "Motor Score", "setting": "brain focal ischemia; 3 days after ischemia, scale 0-12, no drug 6.93, sham 11.13", "value": "9.50 ± 0.56"}, {"measurement": "Irreversibly sickling cells", "setting": "sickle red blood cells; 60 nM drug during cycling", "value": 14.8, "unit": "percentages"}, {"measurement": "Reversibly sickling cells", "setting": "sickle red blood cells; 60 nM drug during cycling", "value": 85.2, "unit": "percentages"}, {"measurement": "Irreversibly sickling cells", "setting": "sickle red blood cells; 100 nM drug during cycling", "value": 10.3, "unit": "percentages"}, {"measurement": "Reversibly sickling cells", "setting": "sickle red blood cells; 100 nM drug during cycling", "value": 89.7, "unit": "percentages"}, {"measurement": "Irreversibly sickling cells", "setting": "sickle red blood cells; 200 nM drug during cycling", "value": 0, "unit": "percentages"}, {"measurement": "Reversibly sickling cells", "setting": "sickle red blood cells; 200 nM drug during cycling", "value": 100, "unit": "percentages"}]}]}
